Values of other authors in patent US20240226128A1, “NOVEL COMPOUNDS WITH DUAL INHIBITION ACTIVITY AGAINST SARS-COV-2 CRITICAL ENZYMES RDRP, MPRO AND HUMAN TMPRSS2” (priority 2022, published 2024).

System: COVID-19
Conditions: high-risk patient including different variants; cited from earlier work

Structure (SMILES): CC(C)C(=O)OC[C@H]1O[C@@H](n2ccc(NO)nc2=O)[C@H](O)[C@@H]1O [Molnupiravir]
- reduced risk of COVID-19 death: 50%
